Reference: patent publication US20210228741A1, “METHODS AND COMPOSITIONS TO STIMULATE RETINAL REGENERATION” (UNIVERSITY OF WASHINGTON, priority 2018, published 2021)

Tests used:
WT retinas = conditions: mouse, in vivo
Description: A) Experimental paradigm for analyzing STAT3 phosphorylation by western blot in MG. P11 retinas were dissociated and grown in a growth media containing mEGF for 7 DIV. MG were passaged to eliminate residual neurons and cultured in a media containing doxycycline to induce Ascl1 expression for 6 DIV. […] B) Representative images from confluent cultures of non-treated, DOX-treated, and DOX+STATi-treated MG just before harvesting. C) Representative western blot for pSTAT3 (Y705), STAT3, and Beta-actin on non-treated, Dox-treated, and Dox+STATi-treated MG cultures. […] Scale bars for B and E are 25 and 40 μm, respectively.
Immunohistochemistry (IHC): Upon euthanasia of adult mice, eyes were removed and comeas dissected away. Globes were then fixed for 1 hour in 4% PFA in PBS followed by an overnight incubation in 30% sucrose in PBS at 4° C. Fixed eyes were then frozen in O.T.C. (Sakura Finetek) at −80° C. until sectioned. Frozen eyes were sectioned on a cryostat (Leica) at 16-18 μm thick and were stored at −20° C. until staining. All washes were 3 times 20 minutes in PBS on a rotating plate at room temperature. Slides were washed then blocked in 10% normal horse serum, 0.5% Triton X-100 in PBS for a minimum of 1 hour prior to primary. All primary antibodies were diluted in blocking solution and applied to tissue for a minimum of 3 hours. […]

[1] = tested on: Ascl1 binding at STAT3 bound regions; assay: Ascl1 ChIP-seq on control and STATi-treated cultured MG; assay type: cell-based, mouse; conditions: cultured P12 MG, doxycycline-induced Ascl1
Procedure: To directly assess the effect that STAT pathway activation has on Ascl1 binding at Id genes and more broadly across the genome during MG reprogramming, we performed an Ascl1 ChIP-seq on control and STATi-treated MG. Frozen stocks of MG from P12 germline-rtTA:tetO429 Ascl1 mice were thawed and cultured to confluency for 2 days in high FBS growth media. Cells were then given a low FBS media with STATi or vehicle for the remaining 4 DIV. At 3 DIV (1 day after STATi), doxycyline was administered to induce Ascl1 overexpression in the MG. Cells were then collected and fixed for ChIP-seq after 6 DIV. FASTQ files were aligned to the mm10 genome using Bowtie2 and peaks were called using MACS2. […] Both datasets contained the canonical Ascl1 E-box as the top scoring motif, as determined by HOMER, with strong central enrichment of peaks from both datasets around the Ascl1 motif. […]
Ascl1 Chromatin Immunoprecipitation-Sequencing (ChIP-Seq): P0 retinas or cultured, post-natal day 12, Müller glia (+/−Ascl1 overexpression, rtTA germline:tetO-Ascl1-ires-GFP mice ±doxycycline) were digested with papain/DNase to single cells and fixed with 0.75% formaldehyde for 10 minutes at room temperature. […] Libraries were prepared with standard Illumina adaptors and sequenced to an approximate depth of 36 million reads each. Sequence reads (36 bp) were mapped to the mouse mm9 genome using bwa (v 0.7.12-r1039). […]

[2] = tested on: Ascl1-reporter Müller glia; assay: miRNA mimic/antagomiR transfection of P11 MG cultures from Ascl1-CreER:tdTomato reporter mice; assay type: cell-based, mouse
Description: To test whether miRNAs regulate the neurogenic competence of MG, we used primary dissociated cell cultures, since this method has proven effective for identifying reprogramming factors that are effective both in vitro and in vivo (Jorstad et al., 2017; Pollak et al., 2013; Ueki et al., 2015). We hypothesized that miRNAs highly expressed in RPCs may be important in establishing and maintaining the RPC gene expression pattern. One prediction of this hypothesis is that over-expression of the RPC-miRNAs in MG would cause the MG to adopt a progenitor-like gene expression profile. […]
MG cultures from P11 Ascl1-CreER:tdTomatoflSTOP/flSTOP mice were transfected with either a cocktail of all four RPC-miR mimics, or each miRNA mimic individually (FIG. 10B). We added 4-Hydroxy-tamoxifen to the cultures to activate the cre-recombinase and monitored the cells for tdTomato expression. […]
Müller glia were dissociated (see above) from postnatal day (P) 11/12 mice and adult (one month, 2, and 4 months) and grown in Neurobasal medium supplemented with N-2, tetracycline-free 10% fetal bovine serum (FBS, Clontech), and epidermal growth factor (EGF, R&D Systems, 100 ng/mL) as described previously (Ueki et al., 2012). […] EdU was added either with the onset of culturing to track cell proliferation of MG lineage or after transfection to quantify cell proliferation due to the treatment. […]

Molecule: CN(CC(=O)N(Cc1ccc(C2CCCCC2)cc1)c1ccc(C(=O)O)cc1)S(=O)(=O)c1c(F)c(F)c(F)c(F)c1F [SH-4-54]
- toxicity (TUNEL staining) (WT retinas): not found to be toxic
- Ascl1 binding (ChIP-seq peaks) at STAT3 bound regions near Id1 and Id3 [1]: Decreased Ascl1 binding

Molecule: miR-25: miR-25 mimic, CAUUGCACUUGUCUCGGUCUGA (SEQ ID NO: 22); double-stranded, preprocessed miRNA (double-stranded mimic, other strand not given here)
- Ascl1:tdTomato+ cells (Ascl1-reporter expression) ([2]; P11 MG cultures, days post-transfection vs control): significant increase
- conversion of MG into a neuronal/RPC phenotype ([2]; young (P11) MG in vitro, summary statement): approximately 40%
